Like-named read-outs stand apart in the source and are kept apart here.
Key:
[1] = test system: SNB-75 cells (CNS cancer cell line); assay: NCI one-dose assay, SNB-75; assay type: cell-based; conditions: Homo sapiens
Protocol: (§1) All novel scaffolds 6a–j were carefully selected by the National Cancer Institute (NCI), Bethesda, USA, to elucidate their cytotoxic activity versus 60 human cancer cell lines at 10 µM as a single-dose concentration after a 48 h incubation period.
(§2) National Cancer Institution selected all the synthesized 6a–j (NCI), Bethesda, USA, for in vitro one-dose antitumor assay. The methodology protocol for the NCI anticancer screening was reported in detail elsewhere (http://www.dtp.nci.nih.gov). The anticancer assay was performed in full NCI 60 cell lines extracted from nine tumor cell lines, including leukemia, melanoma, lung, colon, CNS, ovarian, renal, prostate, and breast cancer cell lines.

[2] = test system: UO-31; assay: NCI one-dose assay, UO-31; assay type: cell-based; conditions: Homo sapiens; UO-31 (Renal Cancer), 10 uM single dose; read-out: Growth inhibition %
Protocol: as §1, §2

[3] = test system: K-562; assay: NCI one-dose assay, K-562; assay type: cell-based; conditions: Homo sapiens, K562; K-562 (Leukemia), 10 uM single dose; read-out: Growth inhibition %
Protocol: as §1, §2

[4] = test system: NCI/ADR-RES (ovarian cancer cell line); assay: NCI one-dose assay, NCI/ADR-RES; assay type: cell-based; conditions: Homo sapiens; NCI/ADR-RES (Ovarian Cancer), 10 uM single dose; read-out: Growth inhibition %
Protocol: as §1, §2

[5] = test system: 60 human cancer cell lines; assay: NCI one-dose assay against sixty NCI cancer cell lines; assay type: cell-based
Protocol: as §1, §2

[6] = test system: MCF-7; assay: NCI one-dose assay, MCF-7; assay type: cell-based, human; conditions: Homo sapiens, MCF7, MCF7 (Breast Cancer), 10 uM single dose; read-out: Growth inhibition %
Protocol: as §1, §2

[7] = test system: MOLT-4; assay: NCI one-dose assay, MOLT-4; assay type: cell-based; conditions: Homo sapiens; MOLT-4 (Leukemia), 10 uM single dose; read-out: Growth inhibition %
Protocol: as §1, §2

[8] = test system: LOX IMVI; assay: NCI one-dose assay, LOX IMVI; assay type: cell-based; conditions: Homo sapiens; LOX IMVI (Melanoma), 10 uM single dose; read-out: Growth inhibition %
Protocol: as §1, §2

[9] = test system: T-47D; assay: NCI one-dose assay, T-47D; assay type: cell-based; conditions: Homo sapiens, T47D; T-47D (Breast Cancer), 10 uM single dose; read-out: Growth inhibition %
Protocol: as §1, §2

[10] = test system: SR; assay: NCI one-dose assay, SR; assay type: cell-based; conditions: Homo sapiens; SR (Leukemia), 10 uM single dose; read-out: Growth inhibition %
Protocol: as §1, §2

[11] = test system: HOP-92 (non-small cell lung cancer cell line); assay: NCI one-dose assay, HOP-92; assay type: cell-based; conditions: Homo sapiens
Protocol: as §1, §2

[12] = test system: NCI-H23; assay: NCI one-dose assay, NCI-H23; assay type: cell-based; conditions: Homo sapiens; NCI-H23 (Non-Small Cell Lung Cancer), 10 uM single dose; read-out: Growth inhibition %
Protocol: as §1, §2

[13] = SNB-75 (CNS Cancer), 10 uM single dose, read-out: Growth inhibition %
[14] = CAKI-1 (Renal Cancer), 10 uM single dose, read-out: Growth inhibition %
[15] = NCI-H226 (Non-Small Cell Lung Cancer), 10 uM single dose, read-out: Growth inhibition %
[16] = PC-3 (Prostate Cancer), 10 uM single dose, read-out: Growth inhibition %
[17] = UACC-62 (Melanoma), 10 uM single dose, read-out: Growth inhibition %
[18] = HCT-15 (Colon Cancer), 10 uM single dose, read-out: Growth inhibition %
[19] = HOP-62 (Non-Small Cell Lung Cancer), 10 uM single dose, read-out: Growth inhibition %
[20] = HS 578T (Breast Cancer), 10 uM single dose, read-out: Growth inhibition %
[21] = IGROV-1, IGROV1 (Ovarian Cancer), 10 uM single dose, read-out: Growth inhibition %
[22] = MDA-MB-231, read-out: Growth inhibition %
[23] = OVCAR-3 (Ovarian Cancer), 10 uM single dose, read-out: Growth inhibition %
[24] = SF-268 (CNS Cancer), 10 uM single dose, read-out: Growth inhibition %
[25] = BT-549 (Breast Cancer), 10 uM single dose, read-out: Growth inhibition %
[26] = CCRF-CEM (Leukemia), 10 uM single dose, read-out: Growth inhibition %
[27] = HCT-116 (Colon Cancer), 10 uM single dose, read-out: Growth inhibition %
[28] = M14 (Melanoma), 10 uM single dose, read-out: Growth inhibition %
[29] = NCI-H322M (Non-Small Cell Lung Cancer), 10 uM single dose, read-out: Growth inhibition %
[30] = NCI-H522 (Non-Small Cell Lung Cancer), 10 uM single dose, read-out: Growth inhibition %
[31] = RPMI-8226 (Leukemia), 10 uM single dose, read-out: Growth inhibition %
[32] = SF-539 (CNS Cancer), 10 uM single dose, read-out: Growth inhibition %
[33] = U-251, U251 (CNS Cancer), 10 uM single dose, read-out: Growth inhibition %
[34] = ACHN (Renal Cancer), 10 uM single dose, read-out: Growth inhibition %
[35] = OVCAR-8 (Ovarian Cancer), 10 uM single dose, read-out: Growth inhibition %

SMILES | inhibition at 10 µM [1, 13] [%] | inhibition at 10 µM [2] [%] | inhibition at 10 µM [3] [%] | melting point [°C] | inhibition at 10 µM [5, 14] [%] | inhibition at 10 µM [5, 15] [%] | inhibition at 10 µM [5, 16] [%] | inhibition at 10 µM [5, 17] [%] | inhibition at 10 µM [6] [%] | inhibition at 10 µM [7] [%] | inhibition at 10 µM [5, 18] [%] | inhibition at 10 µM [5, 19] [%] | inhibition at 10 µM [5, 20] [%] | inhibition at 10 µM [5, 21] [%] | inhibition at 10 µM [5, 23] [%] | inhibition at 10 µM [5, 24] [%] | inhibition at 10 µM [8] [%] | inhibition at 10 µM [9] [%] | inhibition at 10 µM [10] [%] | inhibition at 10 µM [5, 27] [%] | other results
O=C1Nc2ccccc2C1=Cc1ccc(OCC(=O)c2ccccc2)cc1 [Compound 6a, 3-{4-[2-Oxo-2-phenylethoxy]benzylidene}indolin-2-one] | 26.2 | 30.5 | 11.1 | 219 to 221 | 13.1 | 11 | 17.1 | 12.9 | 11.3 | – | – | – | – | – | – | – | – | – | – | – | inhibition at 10 µM [4]: 1.84%
O=C1Nc2ccc(Cl)cc2C1=Cc1ccc(OCC(=O)c2ccccc2)cc1 [Compound 6b, 5-Chloro-3-{4-[2-oxo-2 phenylethoxy]benzylidene}indolin-2-one] | 31.1 | 39.5 | 23.5 | 189 to 191 | 31.9 | 13.3 | 24.9 | 25.1 | 38 | 13.4 | 11.9 | 14.6 | 13.7 | 20.3 | 12.7 | 11.3 | – | – | – | – | inhibition at 10 µM [5, 22]: 15.5%; inhibition at 10 µM ([5]; SK-OV-3 (Ovarian Cancer), 10 uM single dose, read-out: Growth inhibition %): 11.9%
O=C1Nc2ccc(F)cc2/C1=C\c1ccc(OCC(=O)c2ccccc2)cc1 [Compound 6d, (E/Z)-5-Fluoro-3-{4-[2-oxo-2-phenylethoxy]benzylidene}indolin-2-one] | 33.7 | 32.3 | 33.6 | 223 to 226 | 28.3 | 10.3 | 23 | 30.6 | 23.1 | 32.2 | 11.7 | 10.5 | 14.8 | – | – | 14.6 | 17.7 | 14.3 | 25.2 | 14.3 | inhibition at 10 µM [5, 25]: 10.9%; inhibition at 10 µM [5, 26]: 15.6%; inhibition at 10 µM ([5]; EKVX (Non-Small Cell Lung Cancer), 10 uM single dose, read-out: Growth inhibition %): 18.9%; inhibition at 10 µM ([5]; HL-60(TB) (Leukemia), 10 uM single dose, read-out: Growth inhibition %): 16.9%; inhibition at 10 µM ([5]; KM12 (Colon Cancer), 10 uM single dose, read-out: Growth inhibition %): 15.9%; inhibition at 10 µM [5, 28]: 12.1%; inhibition at 10 µM [5, 29]: 11.2%; inhibition at 10 µM [5, 30]: 12.4%; inhibition at 10 µM [5, 31]: 22.1%; inhibition at 10 µM [5, 32]: 14.3%; inhibition at 10 µM ([5]; SNB-19 (CNS Cancer), 10 uM single dose, read-out: Growth inhibition %): 14.9%; inhibition at 10 µM [5, 33]: 16.8%
COc1ccc2c(c1)C(=Cc1ccc(OCC(=O)c3ccccc3)cc1)C(=O)N2 [Compound 6e, 5-Methoxy-3-{4-[2-oxo-2-phenylethoxy]benzylidene}indolin-2-one] | – | 29.6 | 19.5 | 196 to 198 | 19.8 | 11.6 | 14.8 | 24.7 | 20.2 | 11.6 | 10.3 | – | – | – | – | – | 19.5 | – | – | 12 | inhibition at 10 µM [5, 34]: 11.2%; inhibition at 10 µM [5, 29]: 12.4%
O=C1Nc2cc(Cl)ccc2C1=Cc1ccc(OCC(=O)c2ccccc2)cc1 [Compound 6c, 6-Chloro-3-{4-[2-oxo-2-phenylethoxy]benzylidene}indolin-2-one] | – | 35 | 18 | 199 to 201 | 26.4 | 13.2 | 28.5 | 27.9 | 38.2 | – | 23.5 | – | 12.6 | 20.1 | 10.8 | 11.4 | 16.5 | 16.3 | – | 12.2 | inhibition at 10 µM ([1]; SNB-75, 10 µM single dose, 48 h incubation, read-out: cell growth inhibition % (GI %)): 41.2%; inhibition at 10 µM [5, 34]: 15.9%; inhibition at 10 µM [5, 28]: 11.1%; inhibition at 10 µM [5, 29]: 11.6%; inhibition at 10 µM [5, 30]: 11.7%; inhibition at 10 µM ([5]; RXF 393 (Renal Cancer), 10 uM single dose, read-out: Growth inhibition %): 16.4%; inhibition at 10 µM [5, 32]: 13.8%
COc1ccc(C(=O)COc2ccc(C=C3C(=O)Nc4ccc(Cl)cc43)cc2)cc1 [Compound 6i, 5-Chloro-3-{4-[2-(4-methoxyphenyl)-2-oxoethoxy]benzylidene}indolin-2-one] | 37.6 | 38.1 | 25 | 183 to 185 | 22.7 | 17.4 | 29.6 | 20.1 | 22.1 | 21.8 | – | – | – | – | 10.8 | – | 12.3 | 23.9 | 21.2 | 10.4 | inhibition at 10 µM ([11]; HOP-92, 10 µM single dose, 48 h incubation, read-out: cell growth inhibition % (GI %)): 62.1%; inhibition at 10 µM [4]: 13.1%; inhibition at 10 µM [5, 25]: 11.7%; inhibition at 10 µM [5, 26]: 12.5%; inhibition at 10 µM [5, 30]: 16.1%; inhibition at 10 µM [5, 35]: 10.6%; inhibition at 10 µM [5, 31]: 19.9%; inhibition at 10 µM ([5]; SK-MEL-2 (Melanoma), 10 uM single dose, read-out: Growth inhibition %): 22.2%
COc1ccc(C(=O)COc2ccc(/C=C3/C(=O)Nc4cc(Cl)ccc43)cc2)cc1 [Compound 6j, (E/Z)-6-Chloro-3-{4-[2-(4-methoxyphenyl)-2-oxoethoxy]benzylidene}indolin-2-one] | 36.7 | 35.9 | 22.8 | 165 to 167 | 23.2 | 13.2 | 33.5 | 23.8 | 34.4 | 30.3 | – | 16.7 | – | 21.5 | 18.1 | – | – | 15.6 | 16.7 | 12.2 | inhibition at 10 µM ([11]; HOP-92 (Non-Small Cell Lung Cancer), 10 uM single dose, read-out: Growth inhibition %): 34.8%; inhibition at 10 µM [12]: 10.5%; inhibition at 10 µM [5, 34]: 10.1%; inhibition at 10 µM [5, 28]: 10.3%; inhibition at 10 µM [5, 22]: 12.2%; inhibition at 10 µM ([5]; OVCAR-4 (Ovarian Cancer), 10 uM single dose, read-out: Growth inhibition %): 11%; inhibition at 10 µM [5, 35]: 13.4%; inhibition at 10 µM [5, 33]: 12.9%

— PMC11070402, “New antiproliferative 3-substituted oxindoles inhibiting EGFR/VEGFR-2 and tubulin polymerization” (Molecular Diversity, 2023)
